Like-named read-outs stand apart in the source and are kept apart here.
Tests used:
[1] = 3 hours after administration, cited from earlier work
[2] = Pharmacokinetics (distribution in organs and tissues) in intact female rats after intravenous introduction; format: in vivo; details: for Blood / Femur / Kidneys / Liver / Skeleton / Stomach / Urinary bladder (1, 3 h) / Excretion (5, 24): intact female rats, i.v.
Experimental: (§1) The experiments were run on the intact scrub albino rats with modeled osseous pathology. The osseous pathology was imitated by the femur fracture.
(§2) To prepare the composition, 5.0 ml of the sodium pertechnetate ^99mTc from the technetium generator (FSP 42-0225-4528-03, FSP 42-0018-2694-02) were injected into the lyophilizate vial by puncturing the rubber stopper with a syringe needle; then the vial was agitated and cured 20 minutes. The 0.2 ml volume of the composition was injected into the caudal vein. 1, 3, 5, and 24 hours after injection the animals were devitalized by decapitation; then the samples of blood, liver, kidneys, stomach, right and left femurs, urinary bladder with contents were taken. The radionuclide in organs and tissues was determined by the direct radiometry.
(§3) The statistical treatment used the Student's method.

[3] = Pharmacokinetics (distribution in organs and tissues) in female rats with modeled osseous pathology (femur fracture) after intravenous introduction; format: in vivo; details: for Blood / Femur, fractured / Femur, normal / Kidneys / Liver / Skeleton / Stomach / Urinary bladder (1, 3 h) / Excretion (5, 24): female rats with modeled osseous pathology, i.v.; for Delayed retention index: ratio of concentration in femur with modeled pathology to healthy femur
Experimental: as §1, §2
The delayed retention index was determined as the ratio of division of the composition concentration in the femoral bone with the modeled osseous pathology and in the healthy femoral bone.
as §3

[4] = intact animals, 3 hours after introduction

Question: For “99Tcm labeled zoledronate (ZL) [known solution (Wang et al)]”, which “skeletal retention of RM” value ([1]; known solution (Wang et al)) is on record?
Answer: 34.2%

Question: And the “retention level in the liver” value ([1]; prior metal complex (Wang et al))?
Answer: 13.4 % of the doze injected

Question: What does the source list for “Technetium-99m in form of complex with zoledronic acid [zoledronic acid, 99mTc]”?
Answer: retention level in the liver ([2]; 3 hours after administration): 1.0 % of the doze injected; skeletal retention of RM ([2]; 3 hours after the administration): 47.3 % of the dose injected; activity level in blood ([2]; 5 hours after the study start): trace; excretion [2, 4]: 30%; retention in the skeleton [2, 4]: 47%; injected activity localizes in the skeleton ([2]; intact animals, intravenous injection, in one hour): up to 48 % of the injected activity; excreted from the organism with the urine ([2]; intact animals, intravenous injection, in one hour, 60 min): 45%; Blood ([2]; 1 h): 1.7 ± 0.27 % dose/organ; Femur ([2]; 1 h): 1.8 ± 0.16 % dose/organ; Kidneys ([2]; 1 h): 1.3 ± 0.17 % dose/organ; Liver ([2]; 1 h): 0.8 ± 0.12 % dose/organ; Skeleton ([2]; 1 h): 48.1 ± 4.36 % dose/organ; Stomach ([2]; 1 h): 0.1 ± 0.03 % dose/organ; Urinary bladder (1, 3 h) ([2]; 1 h): 45.4 ± 4.03 % dose/organ; Blood ([2]; 3 h): 0.9 ± 0.38 % dose/organ; Femur ([2]; 3 h): 1.9 ± 0.35 % dose/organ; Kidneys ([2]; 3 h): 0.9 ± 0.21 % dose/organ; Liver ([2]; 3 h): 1.0 ± 0.27 % dose/organ; Skeleton ([2]; 3 h): 47.3 ± 2.89 % dose/organ; Stomach ([2]; 3 h): 0.1 ± 0.01 % dose/organ; Urinary bladder (1, 3 h) ([2]; 3 h): 30.1 ± 4.41 % dose/organ; Blood ([2]; 5 h): 0.4 ± 0.03 % dose/organ; Excretion (5, 24) ([2]; 5 h): 52.4 ± 2.80 % dose/organ; Femur ([2]; 5 h): 1.6 ± 0.11 % dose/organ; Kidneys ([2]; 5 h): 1.2 ± 0.13 % dose/organ; Liver ([2]; 5 h): 0.6 ± 0.11 % dose/organ; Skeleton ([2]; 5 h): 42.9 ± 2.93 % dose/organ; Stomach ([2]; 5 h): 0.1 ± 0.04 % dose/organ; Blood ([2]; 24 h): traces; Excretion (5, 24) ([2]; 24 h): 39.1 ± 5.00 % dose/organ; Femur ([2]; 24 h): 1.8 ± 0.06 % dose/organ; Kidneys ([2]; 24 h): 0.6 ± 0.32 % dose/organ; Liver ([2]; 24 h): 0.2 ± 0.13 % dose/organ; Skeleton ([2]; 24 h): 49.6 ± 1.77 % dose/organ; Stomach ([2]; 24 h): 0.3 ± 0.05 % dose/organ; Blood ([3]; 1 h): 1.7 ± 0.71 % dose/organ; Femur, fractured ([3]; 1 h): 4.2 ± 1.04 % dose/organ; Femur, normal ([3]; 1 h): 2.1 ± 0.20 % dose/organ; Kidneys ([3]; 1 h): 1.8 ± 0.83 % dose/organ; Liver ([3]; 1 h): 1.7 ± 0.58 % dose/organ; Skeleton ([3]; 1 h): 57.7 ± 5.54 % dose/organ; Stomach ([3]; 1 h): 0.4 ± 0.03 % dose/organ; Urinary bladder (1, 3 h) ([3]; 1 h): 35.1 ± 10.53 % dose/organ; Blood ([3]; 3 h): 2.0 ± 0.81 % dose/organ; Femur, fractured ([3]; 3 h): 4.0 ± 1.34 % dose/organ; Femur, normal ([3]; 3 h): 1.9 ± 0.42 % dose/organ; Kidneys ([3]; 3 h): 1.4 ± 0.68 % dose/organ; Liver ([3]; 3 h): 1.1 ± 0.42 % dose/organ; Skeleton ([3]; 3 h): 46.6 ± 7.81 % dose/organ; Stomach ([3]; 3 h): 0.2 ± 0.09 % dose/organ; Urinary bladder (1, 3 h) ([3]; 3 h): 44.8 ± 3.89 % dose/organ; Blood ([3]; 5 h): 0.5 ± 0.01 % dose/organ; Excretion (5, 24) ([3]; 5 h): 43.4 ± 5.05 % dose/organ; Femur, fractured ([3]; 5 h): 3.1 ± 0.70 % dose/organ; Femur, normal ([3]; 5 h): 1.9 ± 0.20 % dose/organ; Kidneys ([3]; 5 h): 0.9 ± 0.06 % dose/organ; Liver ([3]; 5 h): 1.0 ± 0.05 % dose/organ; Skeleton ([3]; 5 h): 49.9 ± 5.44 % dose/organ; Stomach ([3]; 5 h): 0.4 ± 0.05 % dose/organ; Blood ([3]; 24 h): 0.7 ± 0.01 % dose/organ; Excretion (5, 24) ([3]; 24 h): 52.5 ± 10.86 % dose/organ; Femur, fractured ([3]; 24 h): 2.5 ± 0.05 % dose/organ; Femur, normal ([3]; 24 h): 1.4 ± 0.40 % dose/organ; Kidneys ([3]; 24 h): 0.5 ± 0.08 % dose/organ; Liver ([3]; 24 h): 0.5 ± 0.09 % dose/organ; Skeleton ([3]; 24 h): 38.0 ± 11.02 % dose/organ; Stomach ([3]; 24 h): traces; Delayed retention index ([3]; 1 h): 2.0; Delayed retention index ([3]; 3 h): 2.1; Delayed retention index ([3]; 5 h): 1.7; Delayed retention index ([3]; 24 h): 1.9

Reference: patent EP2351758B1, “METAL COMPLEXES, A METHOD FOR PREPARING SAME, RADIOPHAR[…] BASED THEREON” (Zakrytoe Aktsionernoe Obschestvo "Farm-Sintez", priority 2008, dated 2010)
